Measured values reported in ChEMBL document CHEMBL1201862, “PubChem BioAssay data set” (2004).
“And” between values parts separate entries of the source, which are not always exact repeats. Equal entries are not always repeated.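 Test compounds were applied to cells in 96-well plates for 48 hours at 5 doses. Abbreviation: GI50, concentration required for 50% inhibition of growth.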 The source made the active and inactive calls. Cut-off read from the data, not from the text of the source: active = GI50 up to about 1.1 µM and inactive = higher.

Tests used:
Assay in all cases: NCI tumour cell line growth inhibition, 48 h
KM12 = tested on: KM12
SK-MEL-2 = tested on: SK-MEL-2
ACHN = tested on: ACHN
OVCAR-8 = tested on: OVCAR-8
NCI-H23 = tested on: NCI-H23
SK-MEL-5 = tested on: SK-MEL-5
SNB-75 = tested on: SNB-75
MDA-N = tested on: MDA-N
UO-31 = tested on: UO-31
UACC-62 = tested on: UACC-62
SN12C = tested on: SN12C
PC-3 = tested on: PC-3
HOP-92 = tested on: HOP-92
NCI/ADR-RES = tested on: NCI/ADR-RES
NCI-H522 = tested on: NCI-H522
UACC-257 = tested on: UACC-257
SF-539 = tested on: SF-539
SW-620 = tested on: SW-620
OVCAR-4 = tested on: OVCAR-4
K562 = tested on: K562

Measured: GI50

Cc1ccc(S(=O)(=O)SC/C=C\CSS(=O)(=O)c2ccc(C)cc2)cc1
inactive: KM12 14.7 µM and 17.2 µM | SK-MEL-2 47 µM | ACHN 29.6 µM and 25.1 µM | OVCAR-8 18.9 µM and 13.3 µM | NCI-H23 16.6 µM and 12.4 µM | SK-MEL-5 27.6 µM and 29.3 µM | SNB-75 19.1 µM and 36.6 µM | MDA-N 14.4 µM | UO-31 55.2 µM | UACC-62 17.6 µM and 20.9 µM | SN12C 18.8 µM and 9.71 µM | PC-3 19.9 µM | HOP-92 14.4 µM and 16.2 µM | NCI/ADR-RES 52.2 µM

Cc1nnc2sc(-c3ccc([N+](=O)[O-])o3)nn12
inactive: KM12 15.8 µM | SK-MEL-2 10.4 µM | ACHN 11.2 µM | NCI-H522 3.03 µM | OVCAR-8 11.4 µM | NCI-H23 15.5 µM | UACC-257 12.7 µM | SK-MEL-5 11.8 µM | MDA-N 5.96 µM | SF-539 4.84 µM | UO-31 15.2 µM | SW-620 4.85 µM | UACC-62 10.4 µM | SN12C 11.6 µM | PC-3 14.7 µM | OVCAR-4 15 µM | HOP-92 15.9 µM | K562 5.33 µM | NCI/ADR-RES 16.4 µM

O=C(/C=C/c1ccc2c(c1)OCO2)c1ccccc(=O)c1O
inactive: KM12 8.43 µM | SK-MEL-2 20.8 µM | ACHN 8.24 µM | NCI-H522 9.62 µM | OVCAR-8 4.3 µM | UACC-257 17.9 µM | SK-MEL-5 7.66 µM | SNB-75 12.3 µM | MDA-N 16.4 µM | UO-31 13.6 µM | SW-620 12 µM | UACC-62 7.73 µM | SN12C 21.7 µM | PC-3 21.5 µM | OVCAR-4 26.5 µM | HOP-92 13.7 µM | K562 6.84 µM | NCI/ADR-RES 2.08 µM

Cc1cc(-c2nc3ccc(F)cc3s2)ccc1N
inactive: KM12 > 100 µM | SK-MEL-2 > 100 µM | ACHN 68.2 µM | NCI-H522 21.5 µM | OVCAR-8 > 100 µM | NCI-H23 > 100 µM | UACC-257 > 100 µM | SK-MEL-5 41.4 µM | SNB-75 > 100 µM | MDA-N > 100 µM | SF-539 43.5 µM | UO-31 > 100 µM | SW-620 > 100 µM | UACC-62 89.1 µM | SN12C > 100 µM | PC-3 63.5 µM | HOP-92 > 100 µM | K562 > 100 µM | NCI/ADR-RES > 100 µM

O=[N+]([O-])c1ccc(OP(=O)(O)OCC2OC(CP(=O)(O)O)C(O)C2O)cc1 (configuration not stated)
inactive: KM12 > 100 µM | SK-MEL-2 > 100 µM | ACHN > 100 µM | NCI-H522 > 100 µM | OVCAR-8 > 100 µM | NCI-H23 > 100 µM | UACC-257 > 100 µM | SK-MEL-5 > 100 µM | MDA-N > 100 µM | SF-539 > 100 µM | UO-31 > 100 µM | SW-620 > 100 µM | UACC-62 > 100 µM | SN12C > 100 µM | PC-3 > 100 µM | OVCAR-4 > 100 µM | HOP-92 > 100 µM | K562 > 100 µM | NCI/ADR-RES > 100 µM

O=C(NNC(=S)Nc1ccccc1)c1csc(NC(=S)NC2CCCCC2)n1
inactive: KM12 > 100 µM | SK-MEL-2 > 100 µM | ACHN > 100 µM | NCI-H522 79.3 µM | OVCAR-8 56.5 µM | NCI-H23 > 100 µM | UACC-257 29 µM | SK-MEL-5 17.4 µM | SNB-75 47.1 µM | MDA-N 50.8 µM | SF-539 77.4 µM | UO-31 16.1 µM | SW-620 52.7 µM | UACC-62 38.9 µM | SN12C 91.4 µM | PC-3 62.4 µM | HOP-92 94 µM | K562 > 10 µM | NCI/ADR-RES 85.7 µM

COC(CNC(=O)CNC(=O)c1ccc(C(F)(F)F)cc1)OC
inactive: KM12 > 100 µM | SK-MEL-2 > 100 µM | ACHN > 100 µM | NCI-H522 > 100 µM | OVCAR-8 > 100 µM | NCI-H23 > 100 µM | UACC-257 > 100 µM | SK-MEL-5 > 100 µM | SNB-75 > 100 µM | MDA-N > 100 µM | SF-539 > 100 µM | UO-31 > 100 µM | SW-620 > 100 µM | UACC-62 > 100 µM | SN12C > 100 µM | PC-3 > 100 µM | HOP-92 > 100 µM | K562 > 100 µM | NCI/ADR-RES > 100 µM

O=C(CC(=O)N1N=C(c2ccccc2)C(/N=N/c2ccc(S(=O)(=O)CCOS(=O)(=O)O)cc2)C1=O)Nc1ccc(Cl)cc1 (configuration not stated)
inactive: KM12 21.7 µM | SK-MEL-2 > 100 µM | ACHN 9.82 µM | NCI-H522 30.9 µM | OVCAR-8 > 100 µM | NCI-H23 > 100 µM | UACC-257 > 100 µM | SK-MEL-5 > 100 µM | SNB-75 > 100 µM | MDA-N > 100 µM | SF-539 > 100 µM | UO-31 40.3 µM | SW-620 > 10 µM | UACC-62 > 100 µM | SN12C 86.5 µM | PC-3 > 100 µM | HOP-92 > 100 µM | K562 7.5 µM | NCI/ADR-RES > 100 µM

Cc1nc2cc(F)c(F)cc2[nH]c1=O
inactive: KM12 > 100 µM | SK-MEL-2 > 100 µM | ACHN > 100 µM | OVCAR-8 > 100 µM | NCI-H23 > 100 µM | UACC-257 > 100 µM | SK-MEL-5 > 100 µM | SNB-75 > 100 µM | MDA-N > 100 µM | SF-539 > 100 µM | UO-31 > 100 µM | SW-620 > 100 µM | UACC-62 > 100 µM | SN12C > 100 µM | PC-3 > 100 µM | OVCAR-4 > 100 µM | HOP-92 > 100 µM | K562 > 100 µM | NCI/ADR-RES > 100 µM

CCCCOC(=O)NC(Nc1ccc(S(=O)(=O)Nc2ncccn2)cc1)(C(F)(F)F)C(F)(F)F
inactive: KM12 > 100 µM | ACHN > 100 µM | NCI-H522 > 100 µM | OVCAR-8 > 100 µM | NCI-H23 > 100 µM | SK-MEL-5 > 100 µM | MDA-N > 100 µM | SF-539 > 100 µM | UO-31 21.7 µM | SW-620 > 100 µM | UACC-62 > 100 µM | SN12C > 100 µM | PC-3 > 100 µM | OVCAR-4 > 100 µM | HOP-92 > 100 µM | K562 > 100 µM | NCI/ADR-RES > 100 µM
